From patent US8637681B2, “Pyrrolyl substituted dihydroindol-2-one derivatives, preparation methods and uses thereof” (Qilu Pharmaceutical Co., Ltd., priority 2010, dated 2014)

What was measured:
[1] = Cytotoxicity test (SRB), Hela; type: cell-based; details: human, Hela cervical cancer cells
Description: Cytotoxicity of the compounds of the present invention was tested with human non-small cell lung cancer cells A549, human cervical cancer Hela cells, human skin cancer cells A431. The test was performed by referring to the method described by Rusnak et al (Rusnak D. W., et al., Cell Prolif., 2007, 40, 580-94). […] Trypsin/ethylenediamine tetraacetic acid (EDTA) were used to harvest cells in cell culture bottle. The cells were added to a 96-well cell culture plate, 4000/well (0.1 ml medium), adhering wall overnight, 0.1 ml of the diluted solution of the compounds to be tested was added, the final concentration of DMSO was 0.25%. The cell culture plate was incubated at 37° C., 5% CO2 conditions for 72 h. […] The absorption at a wavelength of 540 nm was measured. The IC50 (μM) of the compound was calculated using Logit method.

[2] = Cytotoxicity test (SRB), A549; type: cell-based; details: human, A549 non-small cell lung cancer cells
Description: (§1) Cytotoxicity of the compounds of the present invention was tested with human non-small cell lung cancer cells A549, human cervical cancer Hela cells, human skin cancer cells A431. The test was performed by referring to the method described by Rusnak et al (Rusnak D. W., et al., Cell Prolif., 2007, 40, 580-94).
(§2) In Dulbecco's Modified Eagle Medium (DMEM) comprising 10% fetal bovine serum, 2 mM glutamine and non-essential amino acids, cells were cultured at 37° C. in 5% CO2 cell incubator. Trypsin/ethylenediamine tetraacetic acid (EDTA) were used to harvest cells in cell culture bottle. The cells were added to a 96-well cell culture plate, 4000/well (0.1 ml medium), adhering wall overnight, 0.1 ml of the diluted solution of the compounds to be tested was added, the final concentration of DMSO was 0.25%. The cell culture plate was incubated at 37° C., 5% CO2 conditions for 72 h. The change of cellular morphology was observed under microscope, and then 50 μl of 50% (mass/volume) trichloroacetic acid (TCA) was added to each well to fix cells. The final concentration of TCA was 10%. It stood for 5 min, than was placed in 4° C. refrigerator for 1 h, the wells of the culture plate were washed with deionized water for 5 times to remove TCA, drained, dried in air until no wet trace was observed. 100 μl of 0.4% (mass/volume) SRB was added to each well, stood at room temperature for 10 min. The liquid in each well was discarded, and then the wells were washed with 1% acetic acid for 5 times, dried in air, extracted with 150 μl of 10 mM Tris base (trihydroxymethylaminomethane, pH 10.5). The absorption at a wavelength of 540 nm was measured. The IC50 (μM) of the compound was calculated using Logit method.

[3] = test system: arterial ring angiogenesis in rats; experiment: Inhibitory actions on arterial ring angiogenesis in rats; type: cell-based; details: Rattus norvegicus, area covered by micrangiums vs control well, read-out: Inhibitory rate (%); for inhibition at 0.2 µg/mL: 0.2 μg/ml; for inhibition at 1 µg/mL: 1 μg/ml; for inhibition at 5 µg/mL: 5 μg/ml
Description: This experiment was conducted by referring to the method described by R. F. Nicosia et al (Nicosia, R. F., et al. Am J Pathol., 1997, 151, 1379-1386). Rats were executed by cervical dislocation. The thoracic aorta was carefully separated, and placed in a container with physiological saline. The excess tissues were carefully cut off. The blood vessels were cut with a pair of ophthalmic scissors to form 1 mm thick vascular ring slices. To a pre-cooled 96-well cell culture plate, one separated vascular ring was placed in the center of each well. 70 μl of pre-molten Matrigel was carefully added to cover the vascular ring, which was incubated at 37° C. for 1 h so as to solidify it. […] The sample was placed in incubator for conventional culture, and each compound was tested at least in two repeated wells, and each test was repeated twice. […] The fresh culture medium was replaced every 3 days, and the drug was changed at the same time. The survival status of vascular rings was observed under microscope, and pictures were taken at the same time. Image Pro Plus software was used to calculate the area covered by micrangiums. The average inhibition rate was calculated by using the formula: inhibition rate (%)=(area of control well−area of drug well)/area of control well×100%.

[4] = test system: human colon cancer HT 29 transplanted tumor; experiment: Nude mice transplanted tumor test; type: in vivo, female Balb/cA nude mice; set-up: key to d21 Vave ± SD (average tumor volume): tumor volume TV = ½×a×b² (a, b = major, minor diameter), in mm³; details: for Dead animal number / inhibition in vivo at 80 mg/kg / d21 Wave ± SD (average bodyweight of nude mice) / d21 Vave ± SD (average tumor volume) / d21 RTV ± SD (relative tumor volume): 80 mg/kg intragastrically each day for 20 days; for Dead animal number: dead/total animals; for Activity of inhibiting HT-29 transplanted tumor in vivo (in words): 80 mg/kg, compared with positive control Sunitinib; for inhibition in vivo at 80 mg/kg: Mus musculus, HT-29, po, 504 h, (1−T/C)×100%, read-out: Tumor inhibition rate d21 (%); for inhibition in vivo at 80 mg/kg / d21 Wave ± SD (average bodyweight of nude mice) / d21 Vave ± SD (average tumor volume) / d21 RTV ± SD (relative tumor volume): d21; for d0 Wave ± SD (average bodyweight of nude mice): d0, at grouping before administration (baseline); for d21 Vave ± SD (average tumor volume): HT 29 in nude mice; for d21 RTV ± SD (relative tumor volume): RTV=Vt/V0
Description: The nude mice transplanted tumor test used female Balb/cA nude mice, and tumor strains were human colon cancer HT 29 strains.
Under sterile condition, eugonic tumor tissues stage were cut into pieces of about 1.5 mm^3, and inoculated at right axillary fossa of the nude mice. The transplanted tumor diameter was measured by vernier caliper, and the animals were randomly grouped after the tumors grew to about 120 mm^3. The positive control group and the compounds group in a dosage of 80 mg/kg were administered intragastrically each day for consecutive 20 days. The negative control group was given equivalent amount of injection water containing 0.1% Tween 80. Tumor diameters and the bodyweight of mice were measured 2-3 times every week. The evaluation indexes observed in the test include relative tumor proliferation rate, bodyweight and general states. The formulation for calculating tumor volume (TV) is: TV=½×a×b^2, wherein a, b represent major diameter and minor diameter of tumor; Relative tumor volume (RTV) was calculated according the results of measurement by the following formula: RTV=Vt/V0, wherein V0 is tumor volume measured when dividing groups for administration, and Vt is tumor volume measured after each administration.

[5] = Cytotoxicity test (SRB), A431; type: cell-based; details: human, A431 skin cancer cells
Description: as §1, §2

Row | Structure (SMILES) | IC50 at 72 h [1] | IC50 at 72 h [2] | inhibition at 0.2 µg/mL [3] | inhibition at 1 µg/mL [3] | inhibition at 5 µg/mL [3] | Dead animal number [4] | Activity of inhibiting HT-29 transplanted tumor in vivo (in words) [4] | inhibition in vivo at 80 mg/kg [4] | d0 Wave ± SD (average bodyweight of nude mice) [4] | d21 Wave ± SD (average bodyweight of nude mice) [4] | d21 Vave ± SD (average tumor volume) ([4]; in mm³ (unit assumed)) | d21 RTV ± SD (relative tumor volume) [4] | IC50 at 72 h [5] | d21 Vave ± SD (average tumor volume) [4]
1 | CCN(CC)CCC(=O)Nc1c(C)[nH]c(/C=C2\C(=O)Nc3ccc(F)cc32)c1C [Compound 1, N-{5-[5-fluoro-2-oxo-1,2-dihydro-indol-(3Z)-ylidenemethyl]-2,4-dimethyl-1H-pyrrol-3-yl}-3-(N,N-diethylamino)propionamide] | > 30 µM | > 30 µM | 99% | 100% | 100% | 0/6 | inhibitory activity comparable to the positive control Sunitinib | 86.9% | 18.6 ± 1.20 | 18.8 ± 2.97 | 102.8 ± 26.2 | 0.94 ± 0.12 | > 30 µM | 
2 | CCN(CC)CCC(=O)Nc1c(C)[nH]c(/C=C2\C(=O)Nc3ccc(Cl)cc32)c1C [Compound 2, N-{5-[5-chloro-2-oxo-1,2-dihydro-indol-(3Z)-ylidenemethyl]-2,4-dimethyl-1H-pyrrol-3-yl}-3-(N,N-diethylamino)propionamide] | > 30 µM | > 30 µM | 94% | 100% | 100% | 0/6 |  | 63.8% | 18.8 ± 0.35 | 19.9 ± 0.68 |  | 2.60 ± 0.52 | > 30 µM | 300.3 ± 36.8
3 | Cc1[nH]c(/C=C2\C(=O)Nc3ccc(F)cc32)c(C)c1NC(=O)/C=C/CN(C)C [Compound 4, N-{5-[5-fluoro-2-oxo-1,2-dihydro-indol-(3Z)-ylidenemethyl]-2,4-dimethyl-1H-pyrrol-3-yl}-4-(N,N-dimethylamino)-(2E)-crotonamide] | > 30 µM | > 30 µM | 98% | 100% | 100% | 0/6 | inhibitory activity comparable to the positive control Sunitinib | 91% | 19.6 ± 0.22 | 19.6 ± 0.85 | 80.0 ± 33.2 | 0.65 ± 0.28 | > 30 µM | 
4 | Cc1[nH]c(/C=C2\C(=O)Nc3ccc(F)cc32)c(C)c1NC(=O)CCCN(C)C [Compound 5, N-{5-[5-fluoro-2-oxo-1,2-dihydro-indol-(3Z)-ylidenemethyl]-2,4-dimethyl-1H-pyrrol-3-yl}-4-(N,N-dimethylamino)butyramide] | > 30 µM | > 30 µM | 93% | 100% | 100% | 0/6 |  | 86.6% | 18.9 ± 1.00 | 18.6 ± 0.87 | 111.8 ± 28.2 | 0.96 ± 0.42 | > 30 µM | 
5 | Cc1[nH]c(/C=C2\C(=O)Nc3ccc(F)cc32)c(C)c1NC(=O)CCN1CCCC1 [Compound 14, N-{5-[5-fluoro-2-oxo-1,2-dihydro-indol-(3Z)-ylidenemethyl]-2,4-dimethyl-1H-pyrrol-3-yl}-3-(tetrahydropyrrol-1-yl)propionamide] | > 30 µM | > 30 µM | 88% | 100% | 100% |  |  |  |  |  |  |  | > 30 µM | 
6 | Cc1[nH]c(/C=C2\C(=O)Nc3ccc(F)cc32)c(C)c1NC(=O)CN1CCN(C)CC1 [Compound 15, N-{5-[5-fluoro-2-oxo-1,2-dihydro-indol-(3Z)-ylidenemethyl]-2,4-dimethyl-1H-pyrrol-3-yl}-2-(4-methylpiperazin-1-yl)acetamide] | > 30 µM | > 30 µM | 89% | 100% | 100% |  |  |  |  |  |  |  | > 30 µM | 
7 | CCN(CC)CC(=O)Nc1c(C)[nH]c(/C=C2\C(=O)Nc3cc(OC)ccc32)c1C [Compound 23, N-{5-[6-methoxy-2-oxo-1,2-dihydro-indol-(3Z)-ylidenemethyl]-2,4-dimethyl-1H-pyrrol-3-yl}-2-(N,N-diethylamino)acetamide] | > 30 µM | > 30 µM | 90% | 100% | 100% |  |  |  |  |  |  |  | > 30 µM | 
8 | CCN(CC)CC(=O)Nc1c(C)[nH]c(/C=C2\C(=O)Nc3ccc(NS(C)(=O)=O)cc32)c1C [Compound 25, N-{5-[5-methylsulfonylamino-2-oxo-1,2-dihydro-indol-(3Z)-ylidenemethyl]-2,4-dimethyl-1H-pyrrol-3-yl}-2-(N,N-diethylamino)acetamide] | > 30 µM | > 30 µM | 89% | 100% | 100% |  |  |  |  |  |  |  | 6.57 µM | 
9 | CCN(CC)CC(=O)Nc1c(C)[nH]c(/C=C2\C(=O)Nc3cc(C)ccc32)c1C [Compound 27, N-{5-[6-methyl-2-oxo-1,2-dihydro-indol-(3Z)-ylidenemethyl]-2,4-dimethyl-1H-pyrrol-3-yl}-2-(N,N-diethylamino)acetamide] | > 30 µM | > 30 µM | 78% | 95% | 100% |  |  |  |  |  |  |  | > 30 µM | 
